Laboratory results: US11987586B1 (TAKEDA PHARMACEUTICAL COMPANY LIMITED, priority 2022, dated 2024)

biological target: T1, human OX2 receptor (Homo sapiens, UniProt O43614); assay: Measurement of orexin type 2 receptor agonist activity (calcium fluorescence, Fluo-4, FDSS); format: cell-based; conditions: 3 uM test compound; CHO cells expressing human OX2 receptor; DMSO = 0%, 10 nM orexin A (human) = 100%
T1 construct: expressed in transfected cells
T1 sequence (O43614 1-444): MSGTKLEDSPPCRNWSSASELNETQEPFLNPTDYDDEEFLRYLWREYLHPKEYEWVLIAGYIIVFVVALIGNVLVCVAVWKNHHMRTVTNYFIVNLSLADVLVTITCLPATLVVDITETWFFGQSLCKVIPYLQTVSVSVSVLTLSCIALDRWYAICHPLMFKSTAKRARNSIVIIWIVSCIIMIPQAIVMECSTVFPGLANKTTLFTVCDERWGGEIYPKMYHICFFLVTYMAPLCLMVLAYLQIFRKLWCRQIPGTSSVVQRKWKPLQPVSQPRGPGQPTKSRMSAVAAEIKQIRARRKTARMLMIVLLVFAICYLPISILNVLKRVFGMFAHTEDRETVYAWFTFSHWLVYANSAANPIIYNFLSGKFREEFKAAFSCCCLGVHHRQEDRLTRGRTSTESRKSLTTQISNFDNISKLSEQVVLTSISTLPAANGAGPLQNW
Summary of the method: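 CHO-K1 cells stably expressing human OX2 receptor (residues 1-444) were loaded with Fluo-4 AM plus probenecid. Calcium fluorescence after compound addition was recorded for 1 min 40 s. Activity (%) was scaled between DMSO (0%) and 10 nM orexin A final (100%).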

Row | SMILES | OX2R agonist activity (3 uM, %)
1 | CNS(=O)(=O)N[C@@H]1Cn2c(cn(-c3noc4cc(C)nc(-c5c(F)cc(F)cc5F)c34)c2=O)C1(F)F [Example 257, N-{(6R)-7,7-difluoro-2-[6-methyl-4-(2,4,6-trifluorophenyl)[1,2]oxazolo[4,5-c]pyridin-3-yl]-3-oxo-2,5,6,7-tetrahydro-3H-pyrrolo[1,2-c]imidazol-6-yl}-N′-methylsulfuric diamide] | 110%
2 | Cc1cc(-c2c(F)cc(F)cc2F)c2c(N3CC[C@H]4N(C[C@@H](NS(C)(=O)=O)C4(F)F)C3=O)noc2n1 [Example 258, N-{(4aR,6R)-5,5-difluoro-2-[6-methyl-4-(2,4,6-trifluorophenyl)[1,2]oxazolo[5,4-b]pyridin-3-yl]-1-oxooctahydropyrrolo[1,2-c]pyrimidin-6-yl}methanesulfonamide] | 100%
3 | CS(=O)(=O)N[C@@H]1CN2C(=O)N(c3noc4cc(Cl)cc(-c5c(F)cccc5F)c34)CC[C@@H]2C1(F)F [Example 259, N-{(4aR,6R)-2-[6-chloro-4-(2,6-difluorophenyl)-1,2-benzoxazol-3-yl]-5,5-difluoro-1-oxooctahydropyrrolo[1,2-c]pyrimidin-6-yl}methanesulfonamide] | 96%
4 | CCS(=O)(=O)N[C@@H]1CN2C(=O)N(c3noc4cccc(-c5c(F)cc(F)cc5F)c34)CC[C@@H]2C1(F)F [Example 260, N-{(4aR,6R)-5,5-difluoro-1-oxo-2-[4-(2,4,6-trifluorophenyl)-1,2-benzoxazol-3-yl]octahydropyrrolo[1,2-c]pyrimidin-6-yl}ethanesulfonamide] | 108%
5 | CCS(=O)(=O)N[C@@H]1CN2C(=O)N(c3noc4cc(F)cc(-c5c(F)cc(F)cc5F)c34)CC[C@@H]2C1(F)F [Example 261] | 105%
6 | CCS(=O)(=O)N[C@@H]1CN2C(=O)N(c3noc4cccc(-c5c(F)cccc5F)c34)CC[C@@H]2C1(F)F [Example 262] | 114%
7 | CCS(=O)(=O)N[C@@H]1CN2C(=O)N(c3noc4cc(F)cc(-c5c(F)cccc5F)c34)CC[C@@H]2C1(F)F [Example 263, N-{(4aR,6R)-2-[4-(2,6-difluorophenyl)-6-fluoro-1,2-benzoxazol-3-yl]-5,5-difluoro-1-oxooctahydropyrrolo[1,2-c]pyrimidin-6-yl}ethanesulfonamide] | 114%
8 | CN(C)S(=O)(=O)N[C@@H]1Cn2c(cn(-c3noc4ccc(F)c(-c5c(F)cc(F)cc5F)c34)c2=O)C1(F)F [Example 264, N′-{(6R)-7,7-difluoro-2-[5-fluoro-4-(2,4,6-trifluorophenyl)-1,2-benzoxazol-3-yl]-3-oxo-2,5,6,7-tetrahydro-3H-pyrrolo[1,2-c]imidazol-6-yl}-N,N-dimethylsulfuric diamide] | 107%
9 | O=C1N(c2noc3cc(F)cc(-c4c(F)cc(F)cc4F)c23)C[C@H]2N1C[C@@H](NS(=O)(=O)CF)C2(F)F [Example 266] | 103%
10 | O=c1n(-c2noc3cc(C(F)F)cc(-c4c(F)cc(F)cc4F)c23)cc2n1C[C@@H](NS(=O)(=O)CF)C2(F)F [Example 267, N-{(6R)-2-[6-(difluoromethyl)-4-(2,4,6-trifluorophenyl)-1,2-benzoxazol-3-yl]-7,7-difluoro-3-oxo-2,5,6,7-tetrahydro-3H-pyrrolo[1,2-c]imidazol-6-yl}-1-fluoromethanesulfonamide] | 101%
11 | Cc1cc2onc(N3CC[C@H]4N(C[C@@H](NS(=O)(=O)C5CC5)C4(F)F)C3=O)c2c(-c2c(F)cccc2F)n1 [Example 268, N-{(4aR,6R)-2-[4-(2,6-difluorophenyl)-6-methyl[1,2]oxazolo[4,5-c]pyridin-3-yl]-5,5-difluoro-1-oxooctahydropyrrolo[1,2-c]pyrimidin-6-yl}cyclopropanesulfonamide] | 104%
12 | CCS(=O)(=O)N[C@@H]1CN2C(=O)N(c3noc4ccc(F)c(-c5c(F)cccc5F)c34)CC[C@@H]2C1(F)F [Example 269, N-{(4aR,6R)-2-[4-(2,6-difluorophenyl)-5-fluoro-1,2-benzoxazol-3-yl]-5,5-difluoro-1-oxooctahydropyrrolo[1,2-c]pyrimidin-6-yl}ethanesulfonamide] | 104%
13 | O=C1N(c2noc3ccc(F)c(-c4c(F)cccc4F)c23)CC[C@H]2N1C[C@@H](NS(=O)(=O)CF)C2(F)F [Example 270, N-{(4aR,6R)-2-[4-(2,6-difluorophenyl)-5-fluoro-1,2-benzoxazol-3-yl]-5,5-difluoro-1-oxooctahydropyrrolo[1,2-c]pyrimidin-6-yl}-1-fluoromethanesulfonamide] | 109%
14 | O=C1N(c2noc3cc(F)cc(-c4c(F)cccc4F)c23)CC[C@H]2N1C[C@@H](NS(=O)(=O)C1CC1)C2(F)F [Example 271, N-{(4aR,6R)-2-[4-(2,6-difluorophenyl)-6-fluoro-1,2-benzoxazol-3-yl]-5,5-difluoro-1-oxooctahydropyrrolo[1,2-c]pyrimidin-6-yl}cyclopropanesulfonamide] | 107%
15 | O=c1n(-c2noc3ccc(F)c(-c4c(F)cc(F)cc4F)c23)cc2n1C[C@@H](NS(=O)(=O)C1CC1)C2(F)F [Example 272, N-{(6R)-7,7-difluoro-2-[5-fluoro-4-(2,4,6-trifluorophenyl)-1,2-benzoxazol-3-yl]-3-oxo-2,5,6,7-tetrahydro-3H-pyrrolo[1,2-c]imidazol-6-yl}cyclopropanesulfonamide] | 109%
16 | CS(=O)(=O)N[C@@H]1CN2C(=O)N(c3noc4cccc(-c5ccccc5F)c34)CC[C@@H]2C1(F)F [Example 273, N-{(4aR,6R)-5,5-difluoro-2-[4-(2-fluorophenyl)-1,2-benzoxazol-3-yl]-1-oxooctahydropyrrolo[1,2-c]pyrimidin-6-yl}methanesulfonamide] | 103%
17 | CS(=O)(=O)N[C@@H]1CN2C(=O)N(c3noc4cc(C(F)F)cc(-c5c(F)cc(F)cc5F)c34)C[C@@H]2C1(F)F [Example 274, N-{(6R,7aR)-2-[6-(difluoromethyl)-4-(2,4,6-trifluorophenyl)-1,2-benzoxazol-3-yl]-7,7-difluoro-3-oxohexahydro-1H-pyrrolo[1,2-c]imidazol-6-yl}methanesulfonamide] | 102%
18 | CCS(=O)(=O)N[C@@H]1CN2C(=O)N(c3noc4cc(C)nc(-c5c(F)cccc5F)c34)CC[C@@H]2C1(F)F [Example 275, N-{(4aR,6R)-2-[4-(2,6-difluorophenyl)-6-methyl[1,2]oxazolo[4,5-c]pyridin-3-yl]-5,5-difluoro-1-oxooctahydropyrrolo[1,2-c]pyrimidin-6-yl}ethanesulfonamide] | 103%
19 | CS(=O)(=O)N[C@@H]1CN2C(=O)N(c3noc4cccc(-c5cccc(F)c5F)c34)CC[C@@H]2C1(F)F [Example 276, N-{(4aR,6R)-2-[4-(2,3-difluorophenyl)-1,2-benzoxazol-3-yl]-5,5-difluoro-1-oxooctahydropyrrolo[1,2-c]pyrimidin-6-yl}methanesulfonamide] | 100%
20 | CS(=O)(=O)N[C@@H]1CN2C(=O)N(c3noc4cccc(-c5ccc(F)cc5)c34)CC[C@@H]2C1(F)F [Example 277, N-{(4aR,6R)-5,5-difluoro-2-[4-(4-fluorophenyl)-1,2-benzoxazol-3-yl]-1-oxooctahydropyrrolo[1,2-c]pyrimidin-6-yl}methanesulfonamide] | 106%
21 | CS(=O)(=O)N[C@@H]1CN2C(=O)N(c3noc4cccc(-c5cccs5)c34)CC[C@@H]2C1(F)F [Example 278, N-{(4aR,6R)-5,5-difluoro-1-oxo-2-[4-(thiophen-2-yl)-1,2-benzoxazol-3-yl]octahydropyrrolo[1,2-c]pyrimidin-6-yl}methanesulfonamide] | 109%
22 | O=C1N(c2noc3cc(F)cc(-c4c(F)cccc4F)c23)CC[C@H]2N1C[C@@H](NS(=O)(=O)CF)C2(F)F [Example 279, N-{(4aR,6R)-2-[4-(2,6-difluorophenyl)-6-fluoro-1,2-benzoxazol-3-yl]-5,5-difluoro-1-oxooctahydropyrrolo[1,2-c]pyrimidin-6-yl}-1-fluoromethanesulfonamide] | 104%
23 | O=C1N(c2noc3ccc(F)c(-c4c(F)cccc4F)c23)CC[C@H]2N1C[C@@H](NS(=O)(=O)C1CC1)C2(F)F [Example 280, N-{(4aR,6R)-2-[4-(2,6-difluorophenyl)-5-fluoro-1,2-benzoxazol-3-yl]-5,5-difluoro-1-oxooctahydropyrrolo[1,2-c]pyrimidin-6-yl}cyclopropanesulfonamide] | 101%
24 | O=C1N(c2noc3cc(F)cc(-c4c(F)cc(F)cc4F)c23)CC[C@H]2N1C[C@@H](NS(=O)(=O)C1CC1)C2(F)F [Example 281, N-{(4aR,6R)-5,5-difluoro-2-[6-fluoro-4-(2,4,6-trifluorophenyl)-1,2-benzoxazol-3-yl]-1-oxooctahydropyrrolo[1,2-c]pyrimidin-6-yl}cyclopropanesulfonamide] | 107%
25 | O=c1n(-c2noc3cc(F)cc(-c4c(F)cccc4F)c23)cc2n1C[C@@H](NS(=O)(=O)CF)C2(F)F [Example 283, N-{(6R)-2-[4-(2,6-difluorophenyl)-6-fluoro-1,2-benzoxazol-3-yl]-7,7-difluoro-3-oxo-2,5,6,7-tetrahydro-3H-pyrrolo[1,2-c]imidazol-6-yl}-1-fluoromethanesulfonamide] | 107%
